# Columns and labels:
# Format in all cases: functional
# [1] = tested on: Spodoptera frugiperda; test: Insecticidal activity against Spodoptera frugiperda (fall armyworm) assessed as mean time to pupation at 5 ug/ml in artificial diet (reference value: 22 days)
# [2] = tested on: Spodoptera frugiperda; test: Insecticidal activity against Spodoptera frugiperda (fall armyworm) assessed as mean weight of pupae at 52 ug/ml in artificial diet (reference value: 281.5 +/- 10.3 mg)
# [3] = tested on: Spodoptera frugiperda; test: Insecticidal activity against Spodoptera frugiperda (fall armyworm) assessed as mean emergence at 5 ug/ml in artificial diet (reference value: 83.3 %)
# [4] = tested on: Spodoptera frugiperda; test: Insecticidal activity against Spodoptera frugiperda (fall armyworm) assessed as mean time to pupation at 25 ug/ml in artificial diet (reference value: 22 days)
# [5] = tested on: Spodoptera frugiperda; test: Insecticidal activity against Spodoptera frugiperda (fall armyworm) assessed as mean length at 52 ug/ml in artificial diet measured after 7 days (reference value: 0.95 +/- 0.2 cm)
# [6] = tested on: Spodoptera frugiperda; test: Insecticidal activity against Spodoptera frugiperda (fall armyworm) assessed as mean pupation at 52 ug/ml in artificial diet (reference value: 87.5 %)
# [7] = tested on: Spodoptera frugiperda; test: Insecticidal activity against Spodoptera frugiperda (fall armyworm) assessed as mean emergence days at 25 ug/ml in artificial diet (reference value: 33 days)
# [8] = tested on: Spodoptera frugiperda; test: Insecticidal activity against Spodoptera frugiperda (fall armyworm) assessed as mean length at 5 ug/ml in artificial diet measured after 7 days (reference value: 0.95 +/- 0.2 cm)
# [9] = tested on: Spodoptera frugiperda; test: Insecticidal activity against Spodoptera frugiperda (fall armyworm) assessed as mortality at 52 ug/ml in artificial diet measured after 7 days (reference value: 8.33%); details: 168 h
# [10] = tested on: Spodoptera frugiperda; test: Insecticidal activity against Spodoptera frugiperda (fall armyworm) assessed as mean length at 15 ug/ml in artificial diet measured after 7 days (reference value: […])
# [11] = tested on: Spodoptera frugiperda; test: Insecticidal activity against Spodoptera frugiperda (fall armyworm) assessed as mean time to pupation at 52 ug/ml in artificial diet (reference value: 22 days)
# [12] = tested on: Spodoptera frugiperda; test: Insecticidal activity against Spodoptera frugiperda (fall armyworm) assessed as mean length at 10 ug/ml in artificial diet measured after 7 days (reference value: 0.95 +/- 0.2 cm)
# [13] = tested on: Spodoptera frugiperda; test: Insecticidal activity against Spodoptera frugiperda (fall armyworm) assessed as mean weight of pupae at 5 ug/ml in artificial diet (reference value: 281.5 +/- 10.3 mg)
# [14] = tested on: Spodoptera frugiperda; test: Insecticidal activity against Spodoptera frugiperda (fall armyworm) assessed as mean weight gain at 25 ug/ml in artificial diet measured after 7 days (reference value: 75.5 +/- 8.24 mg)
# [15] = tested on: Spodoptera frugiperda; test: Insecticidal activity against Spodoptera frugiperda (fall armyworm) assessed as mean length at 39 ug/ml in artificial diet measured after 7 days (reference value: 0.95 +/- 0.2 cm)
# [16] = tested on: Spodoptera frugiperda; test: Insecticidal activity against Spodoptera frugiperda (fall armyworm) assessed as mean weight gain at 5 ug/ml in artificial diet measured after 7 days (reference value: 75.5 +/- 8.24 mg)
# [17] = tested on: Spodoptera frugiperda; test: Insecticidal activity against Spodoptera frugiperda (fall armyworm) assessed as mean length at 25 ug/ml in artificial diet measured after 7 days (reference value: 0.95 +/- 0.2 cm)
# [18] = tested on: Spodoptera frugiperda; test: Insecticidal activity against Spodoptera frugiperda (fall armyworm) assessed as mortality at 25 ug/ml in artificial diet measured after 7 days (reference value: 8.33%); details: 168 h
# [19] = tested on: Spodoptera frugiperda; test: Insecticidal activity against Spodoptera frugiperda (fall armyworm) assessed as mean pupation at 25 ug/ml in artificial diet (reference value: 87.5 %)
# [20] = tested on: Spodoptera frugiperda; test: Insecticidal activity against Spodoptera frugiperda (fall armyworm) assessed as mean weight gain at 52 ug/ml in artificial diet measured after 7 days (reference value: 469.5 +/- 6.59 mg)
# [21] = tested on: Spodoptera frugiperda; test: Insecticidal activity against Spodoptera frugiperda (fall armyworm) assessed as mean weight gain at 10 ug/ml in artificial diet measured after 7 days (reference value: 75.5 +/- 8.24 mg)
# [22] = tested on: Spodoptera frugiperda; test: Insecticidal activity against Spodoptera frugiperda (fall armyworm) assessed as mean weight gain at 25 ug/ml in artificial diet measured after 7 days (reference value: 469.5 +/- 6.59 mg)
# [23] = tested on: Spodoptera frugiperda; test: Insecticidal activity against Spodoptera frugiperda (fall armyworm) assessed as mean weight gain at 5 ug/ml in artificial diet measured after 7 days (reference value: 469.5 +/- 6.59 mg)
# [24] = tested on: Spodoptera frugiperda; test: Insecticidal activity against Spodoptera frugiperda (fall armyworm) assessed as mean pupation at 5 ug/ml in artificial diet (reference value: 87.5 %)
# [25] = tested on: Spodoptera frugiperda; test: Insecticidal activity against Spodoptera frugiperda (fall armyworm) assessed as mean emergence days at 5 ug/ml in artificial diet (reference value: 33 days)
# [26] = tested on: Spodoptera frugiperda; test: Insecticidal activity against Spodoptera frugiperda (fall armyworm) assessed as mean weight gain at 52 ug/ml in artificial diet measured after 7 days (reference value: 75.5 +/- 8.24 mg)
# [27] = tested on: Spodoptera frugiperda; test: Insecticidal activity against Spodoptera frugiperda (fall armyworm) assessed as mean emergence at 25 ug/ml in artificial diet (reference value: 83.3 %)
# [28] = tested on: Spodoptera frugiperda; test: Insecticidal activity against Spodoptera frugiperda (fall armyworm) assessed as mean emergence days at 52 ug/ml in artificial diet (reference value: 33 days)
# [29] = tested on: Spodoptera frugiperda; test: Insecticidal activity against Spodoptera frugiperda (fall armyworm) assessed as mean length at 10 ug/ml in artificial diet measured after 7 days (reference value: 28 +/- 4.1 mg)
# [30] = tested on: Spodoptera frugiperda; test: Insecticidal activity against Spodoptera frugiperda (fall armyworm) assessed as mean weight of pupae at 25 ug/ml in artificial diet (reference value: 281.5 +/- 10.3 mg)
# [31] = tested on: Spodoptera frugiperda; test: Insecticidal activity against Spodoptera frugiperda (fall armyworm) assessed as mean length at 25 ug/ml in artificial diet measured after 7 days (reference value: 28 +/- 4.1 mg)
# [32] = tested on: Spodoptera frugiperda; test: Insecticidal activity against Spodoptera frugiperda (fall armyworm) assessed as mean weight gain at 15 ug/ml in artificial diet measured after 7 days (reference value: 469.5 +/- 6.59 mg)
# [33] = tested on: Spodoptera frugiperda; test: Insecticidal activity against Spodoptera frugiperda (fall armyworm) assessed as mortality at 10 ug/ml in artificial diet measured after 7 days (reference value: 8.33%); details: 168 h
# [34] = tested on: Spodoptera frugiperda; test: Insecticidal activity against Spodoptera frugiperda (fall armyworm) assessed as mean weight gain at 39 ug/ml in artificial diet measured after 7 days (reference value: 75.5 +/- 8.24 mg)
# [35] = tested on: Spodoptera frugiperda; test: Insecticidal activity against Spodoptera frugiperda (fall armyworm) assessed as mean length at 39 ug/ml in artificial diet measured after 7 days (reference value: 28 +/- 4.1 mg)
# [36] = tested on: Spodoptera frugiperda; test: Insecticidal activity against Spodoptera frugiperda (fall armyworm) assessed as mean weight gain at 39 ug/ml in artificial diet measured after 7 days (reference value: 469.5 +/- 6.59 mg)
# [37] = tested on: Spodoptera frugiperda; test: Insecticidal activity against Spodoptera frugiperda (fall armyworm) assessed as mortality at 15 ug/ml in artificial diet measured after 7 days (reference value: 8.33%); details: 168 h
# [38] = tested on: Spodoptera frugiperda; test: Insecticidal activity against Spodoptera frugiperda (fall armyworm) assessed as mortality at 5 ug/ml in artificial diet measured after 7 days (reference value: 8.33%); details: 168 h
# [39] = tested on: Spodoptera frugiperda; test: Insecticidal activity against Spodoptera frugiperda (fall armyworm) assessed as mean length at 5 ug/ml in artificial diet measured after 7 days (reference value: 28 +/- 4.1 mg)
# [40] = tested on: Spodoptera frugiperda; test: Insecticidal activity against Spodoptera frugiperda (fall armyworm) assessed as mean length at 15 ug/ml in artificial diet measured after 7 days (reference value: 0.95 +/- 0.2 cm)
# [41] = tested on: Spodoptera frugiperda; test: Insecticidal activity against Spodoptera frugiperda (fall armyworm) assessed as mean weight gain at 10 ug/ml in artificial diet measured after 7 days (reference value: 469.5 +/- 6.59 mg)
# [42] = tested on: Spodoptera frugiperda; test: Insecticidal activity against Spodoptera frugiperda (fall armyworm) assessed as mortality at 39 ug/ml in artificial diet measured after 7 days (reference value: 8.33%); details: 168 h
# [43] = tested on: Spodoptera frugiperda; test: Insecticidal activity against Spodoptera frugiperda (fall armyworm) assessed as mean emergence at 52 ug/ml in artificial diet (reference value: 83.3 %)
# [44] = tested on: Spodoptera frugiperda; test: Insecticidal activity against Spodoptera frugiperda (fall armyworm) assessed as mean weight gain at 15 ug/ml in artificial diet measured after 7 days (reference value: 75.5 +/- 8.24 mg)
# [45] = tested on: Spodoptera frugiperda; test: Insecticidal activity against Spodoptera frugiperda (fall armyworm) assessed as mean length at 52 ug/ml in artificial diet measured after 7 days (reference value: 28 +/- 4.1 mg)
# [46] = tested on: Spodoptera frugiperda; test: Insecticidal activity against Spodoptera frugiperda (fall armyworm) assessed as mortality measured after 7 days; details: 168 h
structure (smiles),measurement,setting,value
CC(=O)O[C@@H]1C[C@H]2C(C)(C)C(=O)C=C[C@]2(C)[C@H]2CC[C@@]3(C)[C@H](c4ccoc4)OC(=O)[C@H]4O[C@]43[C@@]21C [GEDUNIN],Time,[1],22 days
same,Activity,[2],52 mg
same,Activity,[3],17.9%
same,Time,[4],23 days
same,Activity,[5],0.2 cm
same,Activity,[6],4.17%
same,Time,[7],35 days
same,Activity,[8],0.5 cm
same,mortality at 52 µg/mL,[9],70.8%
same,Activity,[10],2.6 mm
same,Time,[11],24 days
same,Activity,[12],0.4 cm
same,Activity,[13],147.9 mg
same,Activity,[14],3.4 mg
same,Activity,[15],0.25 cm
same,Activity,[16],6.12 mg
same,Activity,[17],0.3 cm
same,mortality at 25 µg/mL,[18],38.3%
same,Activity,[19],16.7%
same,Activity,[20],2.2 mg
same,Activity,[21],4.9 mg
same,Activity,[22],3.45 mg
same,Activity,[23],16.12 mg
same,Activity,[24],20.8%
same,Time,[25],33 days
same,Activity,[26],1.9 mg
same,Activity,[27],16.7%
same,Time,[28],36 days
same,Activity,[29],2.9 mm
same,Activity,[30],122.4 mg
same,Activity,[31],2.1 mm
same,Activity,[32],3.61 mg
same,mortality at 10 µg/mL,[33],33.3%
same,Activity,[34],2.3 mg
same,Activity,[35],2 mm
same,Activity,[36],2.8 mg
same,mortality at 15 µg/mL,[37],33.3%
same,mortality at 5 µg/mL,[38],25%
same,Activity,[39],2.6 mm
same,Activity,[40],0.35 cm
same,Activity,[41],4.95 mg
same,mortality at 39 µg/mL,[42],48.3%
same,Activity,[43],4.17%
same,Activity,[44],3.6 mg
same,Activity,[45],2.1 mm
same,LC50,[46],39 µg/mL
CC(=O)O[C@@H]1C[C@H](O)[C@@]23CO[C@@H](O)[C@]1(C)[C@@H]2C[C@@H](O)[C@]1(C)[C@@H]3C(=O)[C@H](OC(C)=O)[C@@]2(C)[C@H](c3ccoc3)C[C@H]3O[C@]321 [TOOSENDANIN],Time,[1],23.5 days
same,Activity,[2],38 mg
same,Activity,[3],16.7%
same,Time,[4],24 days
same,Activity,[5],0.57 cm
same,Activity,[6],4.17%
same,Time,[7],36 days
same,Activity,[8],0.98 cm
same,mortality at 52 µg/mL,[9],89%
same,Time,[11],24 days
same,Activity,[13],95 mg
same,Activity,[14],2.3 mg
same,Activity,[16],5.1 mg
same,Activity,[17],0.77 cm
same,mortality at 25 µg/mL,[18],70%
same,Activity,[19],4.17%
same,Activity,[20],11.2 mg
same,Activity,[22],17 mg
same,Activity,[23],21.5 mg
same,Activity,[24],17.9%
same,Time,[25],36 days
same,Activity,[26],1 mg
same,Activity,[27],4.17%
same,Activity,[30],45.1 mg
same,Activity,[31],6.1 mm
same,mortality at 5 µg/mL,[38],40%
same,Activity,[39],7 mm
same,Activity,[43],0%
same,Activity,[45],2.8 mm
same,LC50,[46],7 µg/mL
